# Experimental data from patent publication US20040019429A1, “Methods and systems for analyzing complex biological systems” (priority 2001, published 2004).
# How the values were obtained:
# [1] = tested on: Saccharomyces cerevisiae wild type strain BY4743; experiment: AF1 yeast metabolite analysis by GC-MS and LC-MS after antifungal drug treatment; format: cell-based; conditions: for # Compounds perturbed by treatment: 2X MIC, two hours
# yeast cells = experiment: AF1 combined gene expression and metabolite data mapped to KEGG reactions and pathways; set-up: species or system Saccharomyces cerevisiae
# Description: The pathway score indicates how meaningful the mapping is, or how likely it is to be correctly indicative of the pathway involved in the perturbation under examination. The method provides a pathway score based on perturbation levels of genes and/or compounds and the information content of each gene and/or compound in the pathway, i.e., a pathway score indicates the extent to which other pathways are mapped to a gene/compound. For example, imagine that two genes are perturbed in a particular experiment. One gene maps to only one pathway, giving a high degree of probability that the perturbed pathway is the one identified in the mapping. The second gene maps to three pathways. In the later example, there is only one-third the probability that the pathway identified in the mapping is the one perturbed. […] Degree of perturbation can be calculated, for example, based on a number of standard deviations from a norm, and included in an equation such as the one shown above, so that not only the number of pathways is taken into account, but also accounts for the amount of gene transcript, or compound present as compared to a control. […] KEGG links 676 compounds measured in AF1 to a total of 92 pathways. Of the 676 compounds under consideration, 77 were detected in the AF1 samples. […]
# Arabidopsis thaliana [2] = experiment: MOA1 phenotypic profiling of sprayed plants (eleven phenotypic characteristics); format: in vivo; conditions: hierarchical cluster analysis of eleven phenotypic characteristics
# Arabidopsis thaliana [3] = experiment: MOA1 biochemical (metabolite) profiling by LC-MS and GC-MS; conditions: 20 minutes and 1 hour after spraying
compound,measurement,setting,value
C[C@@H]1[C@H](O)[C@@H](C)/C=C/C=C/C=C/C=C/C=C/C=C/C=C/[C@H](O[C@@H]2O[C@H](C)[C@@H](O)[C@H](N)[C@@H]2O)C[C@@H]2O[C@](O)(C[C@@H](O)C[C@@H](O)[C@H](O)CC[C@@H](O)C[C@@H](O)CC(=O)O[C@H]1C)C[C@H](O)[C@H]2C(=O)O [Amphoteracin B],# Compounds perturbed by treatment,[1]; P < 0.05,16
same,# Compounds perturbed by treatment,[1]; P < 0.1,21
same,"Fold Change, abscisic acid",[1]; platform LC,0
same,"Fold Change, adenosine",[1]; platform LC,0
same,"Fold Change, riboflavin",[1]; platform LC,0
same,"Fold Change, selenoOLmethionine",[1]; platform nLC,0.8515
same,Number Of Pathways Having at Least One Enzyme and One Compound Perturbed (# Reactions),yeast cells,37
same,Number of Reactions Having an Enzyme and at Least One Compound Perturbed,yeast cells,54
CC(C)OC(=O)Nc1cccc(Cl)c1 [Chloropropham],Phenotype and phenotypic clustering (in words),Arabidopsis thaliana [2],neither showed a strong herbicidal phenotype
same,Regulated metabolites relative to control (in words),Arabidopsis thaliana [3],neither butylate nor chlorpropham treatment resulted in many changes in these commonly regulated metabolites
